In US20110245334A1, “USE OF RACEMATES OF PINOCEMBRIN IN PREPARING MEDICAMENTS FOR TREATING STROKE” (CSPC Zhonggi Pharmaceutical Technology (Shijiazhuang) Co. …, priority 2008, published 2011):

Columns and labels:
[1] = antihistamine, oral administration; cited from earlier work
tMCAO rats [2] = test: Neurobehavioral examination (Bederson's score), tMCAO time window study; assay type: in vivo, rat; settings: 2 hours ischemia and 24 hours reperfusion
Procedure: (§1) 1. In the test, transient middle cerebral artery occlusion (tMCAO) model of rats was adopted. The reperfusion was performed after focal cerebral ischemia for 2 hours so as to inspect therapeutic time window of pinocembrin after focal cerebral ischemia. The rats were administered by pinocembrin racemate (1 mg/kg, 5 mg/kg, intravenous injection) after reperfusion 1 hour, 4 hours and 6 hours (i.e., ischemia 3 hour, 6 hours and 8 hours). (R)-pinocembrin and (S)-pinocembrin (1 mg/kg, 5 mg/kg, intravenous injection) were administered after reperfusion 1 hour and 4 hours (i.e., ischemia 3 hour and 6 hours). The therapeutic time windows of these drugs in focal cerebral ischemia were assessed by studying their effects to neurological symptom scores, infarct sizes and brain water contents during 24 hours after tMCAO.
The CCA and ICA were clipped with artery clips. Two No. 0 surgery lines were litigated on the ECA distal end with 2-3 mm spacing and then the vascular between the two surgery lines was cut. The distal end of ECA was pulled until it formed a straight line with the ICA. An incision was cut on ECA and a nylon line was inserted through ECA into ICA. After the artery clip was loosen, the nylon line was pushed on into the brain through ICA and inserted in depth of 18.5±0.5 mm when resistance was felt slightly. The nylon line reached a smaller anterior cerebral artery through the beginning of MCA and then the blood flow obstruction in right MCA was established. the animals were kept in anesthesia during the obstruction. After 2 hours of obstruction, the nylon line was gently pulled out to ECA stub to form reperfusion. During the surgery process, the animals were irradiated by table lamp of 100 W to maintain the body temperature. The room temperature was kept in range of 23-25° C.
(§2) 2.4 Experimental Grouping and Administration • Sham operation group (intravenous injection of normal saline after 3 hours of ischemia); • Model group (intravenous injection of 50 mg/kg hydroxypropyl β-cyclodextrin after 3 hours of ischemia); • Nimodipine group (1 mg/kg, administered after 3 hours of ischemia); • Pinocembrin racemate group (1 mg/kg, 5 mg/kg, administered after 3, 6 and 8 hours of ischemia); • (R)-pinocembrin group (1 mg/kg, 5 mg/kg, administered after 3 and 6 hours of ischemia); • (S)-pinocembrin group (1 mg/kg, 5 mg/kg, administered after 3 and 6 hours of ischemia).
(§3) First administration was performed by intravenous injection, and intraperitoneal injection was carried out once 12 hours later with a dose 1.5 times of that for intravenous injection.
Neurobehavioral examination was performed respectively when the animals were awake after surgery and before the animals were put to death. Bederson's score was adopted (see details in Example 2, 1. Neurobehavioral Examination).

plasma ET-1 = test: Plasma ET-1 (radioimmunoassay) in SHRSP; assay type: in vivo, rat; design: ET-1 content: unit not given here; settings: SHRSP rats; for ET-1 content: plasma
Procedure: 5) Blood of 2 mL was dropped rapidly in a cuvette with 30 μL 7.5% EDTA-2Na and 40 μL aprotinin and mixed. After centrifuged for 5 min at 3000 rpm, plasma ET-1 in liquid supernatant was determined by isotope radioimmunoassay.

tMCAO rats [3] = test: Infarct volume (TTC), tMCAO time window study; assay type: in vivo, rat; settings: 2 hours ischemia and 24 hours reperfusion
Procedure: as §1, §2, §3
After neurobehavioral scoring, the rats were put to death by decollation and their brain tissues were taken out quickly and put into a refrigerator of −20° C. 10 min later, the brain tissues were moved to an environment of room temperature. After the olfactory bulb, cerebellar and lower brain stem were resected, the brain tissue was cut into six continuous coronal slices with an interval of 2 mm. Then the brain slices were quickly put into 5 ml solution containing 2% TTC and incubated at a constant temperature of 37° C. and in a condition of darkness for 30 min. During the time, the brain slices were tipped every 5 min. […] Every group of brain slices were put in order and photographed. The photographs were processed by an image analysis system and the infarct areas in each slice were calculated. The infarct volume of each slice was calculated via multiplying the infarct area by thickness of slice (2 mm), and the infarct volume was the sum of infarct volumes of all slices. The infarct volume percentage was expressed as: sick-side infarct volume/total sick-side brain volume.

SD rats = test: Acute toxicity, single intravenous injection; settings: single intravenous injection in SD rats
tMCAO rats [4] = test: Therapeutic time window in focal cerebral ischemia-reperfusion injured rats; assay type: in vivo, rat; settings: tMCAO rats, 1 mg/kg, 5 mg/kg
Procedure: as §1, §2, §3

tMCAO rats [5] = test: Brain water content, tMCAO time window study; assay type: in vivo, rat; settings: 2 hours ischemia and 24 hours reperfusion
Procedure: as §1, §2, §3
The wet weight of each animal's brain was weighted before sliced. After staining, the brain slices were dried at 105° C. for 24 hours, and the dry weight of each animal's brain was weighted. The brain water contents of animals of various groups were compared. Brain water content=(brain wet weight−brain dry weight)/brain wet weight×100%.

plasma fibrinogen = test: Plasma fibrinogen assay (ELISA) in SHRSP; assay type: in vivo, rat; design: Plasma fibrinogen: unit not given here; settings: SHRSP rats
Procedure: The mixture was centrifuged for 15 min at 3000 rpm and plasma fibrinogen in liquid supernatant was determined by euzymelinked immunosorbent assay (ELISA).

in vivo = settings: SD, rat, iv
MCAO rats = test: Nissl staining of hippocampal neurons, MCAO; assay type: in vivo, rat; settings: hippocampus, cerebral ischemia 24 hours
Procedure: After cerebral ischemia for 24 hours, the rats were anesthetized by intraperitoneal injection of 10% Chloral hydrate. After perfused via heart with heparinized normal saline for 10 min and 4% paraformaldehyde for 30 min, the brain tissue was taken out and moved in 4% paraformaldehyde to fix, then cut into coronal sections (6 μm) by a frozen section machine, and one section was taken out in every 20 sections to stain. The stained sections were expanded on a slide glass treated by polylysine, and then preserved in a refrigerator at −40° C.
Nissel staining: (1) the frozen section was taken out from the refrigerator and dried in room temperature; (2) put into acetone to fix for 30 min and washed by PBS for 3 times, 3 min every time; (3) dipped for 20-30 min in toluidine blue dye and then washed by water for 15 min; (4) dehydrated by ethanol in gradient manner and vitrified by xylene and mounted by a neutral gum; (5) observed under a light microscope and photographed for analysis; (6) 4 frozen sections in roughly same position for each rat were taken out and 5 vision fields in hippocampus for each section were observed under 200× light microscope (totally 20 visions per rat). The cells in vision fields were counted. The averages of ratios of the numbers in the administration groups to the number in the model group were calculated for statistical analysis.

[6] = initially injected after 3 hours of ischemia
[7] = initially injected after 6 hours of ischemia

Molecule	Neurobehavioral value (tMCAO rats [2]; 1 mg/kg, 3 h)	Neurobehavioral value (tMCAO rats [2]; 1 mg/kg, 6 h)	Neurobehavioral value (tMCAO rats [2]; 5 mg/kg, 3 h)	Neurobehavioral value (tMCAO rats [2]; 5 mg/kg, 6 h)	ET-1 content (plasma ET-1; 3 mg/kg)	ET-1 content (plasma ET-1; 10 mg/kg)	ET-1 content (plasma ET-1; 30 mg/kg)	Infarct percentage (%) (tMCAO rats [3]; 1 mg/kg, 3 h)	Infarct percentage (%) (tMCAO rats [3]; 1 mg/kg, 6 h)	Infarct percentage (%) (tMCAO rats [3]; 5 mg/kg, 3 h)	Infarct percentage (%) (tMCAO rats [3]; 5 mg/kg, 6 h)	effect on neurobehavioral injury, infarct volume and cerebral edema (tMCAO rats [4]; [6])	effect on neurobehavioral injury, infarct volume and cerebral edema (tMCAO rats [4]; [7])	Brain water content (%) (tMCAO rats [5]; 1 mg/kg, 3 h)	Brain water content (%) (tMCAO rats [5]; 1 mg/kg, 6 h)	Brain water content (%) (tMCAO rats [5]; 5 mg/kg, 3 h)	Brain water content (%) (tMCAO rats [5]; 5 mg/kg, 6 h)	Plasma fibrinogen (plasma fibrinogen; 3 mg/kg)	Plasma fibrinogen (plasma fibrinogen; 10 mg/kg)	Plasma fibrinogen (plasma fibrinogen; 30 mg/kg)	further results
CC(CN1c2ccccc2Sc2cccnc21)N(C)C (racemic) [isothipendyl racemate, isothipendyl]																					efficacy relative to (+)-isomer [1]: 2.5 times; efficacy relative to (−)-isomer [1]: 1.4 times
O=C1C[C@H](c2ccccc2)Oc2cc(O)cc(O)c21 [(R)-pinocembrin]	1.42 ± 0.82	1.86 ± 0.57	1.39 ± 0.72	1.83 ± 0.49	235.4 ± 35.2	228.4 ± 16.9	198.1 ± 35.4	15.69 ± 7.82	26.33 ± 12.67	15.66 ± 7.88	25.89 ± 13.57	significant effects	not effective	82.18 ± 0.98	83.36 ± 1.12	81.20 ± 1.03	83.77 ± 1.07	2.99 ± 0.13	2.83 ± 0.18	2.74 ± 0.47	LD50 (SD rats): 347.8 (257.4˜466.3) mg/kg
O=C1C[C@@H](c2ccccc2)Oc2cc(O)cc(O)c21 [(S)-pinocembrin, reference compound]	1.29 ± 0.72	1.79 ± 0.63	1.59 ± 0.77	1.77 ± 0.70	243 ± 19.5	240 ± 16.8	240.8 ± 24.3	15.32 ± 7.98	28.06 ± 12.98	15.78 ± 7.28	25.97 ± 12.75	significant effects	not effective	81.95 ± 1.00	82.96 ± 0.98	81.87 ± 1.12	83.37 ± 1.27	3.00 ± 0.32	2.99 ± 0.61	2.81 ± 0.57	effect on plasma ET-1 content (plasma ET-1; compared with the model group): no activity; LD50 (in vivo): 375 mg/kg; effect on content of plasma fibrinogen (plasma fibrinogen; compared with the model group): no activity
pinocembrin racemate																					increase of nerve cells in comparison with the model group (MCAO rats; 3 mg/kg): 11.5±8.9%; increase of nerve cells in comparison with the model group (MCAO rats; 10 mg/kg): 36.8±4.9%; increase of nerve cells in comparison with the model group (MCAO rats; 30 mg/kg): 51.7±6.6%
